Patent US12492188B2, “1H-benzo[D]imidazole derivatives as TLR9 inhibitors for the treatment of fibrosis” (BRISTOL-MYERS SQUIBB COMPANY, priority 2020, dated 2025)
Read-outs that look alike come from different tables or passages of the source.

Target: T1, human TLR9 (Homo sapiens, UniProt Q9NR96)
T1 construct: host or cells: HEK-Blue cells (HEK293-derived reporter line)
T1 sequence (Q9NR96 26-1032): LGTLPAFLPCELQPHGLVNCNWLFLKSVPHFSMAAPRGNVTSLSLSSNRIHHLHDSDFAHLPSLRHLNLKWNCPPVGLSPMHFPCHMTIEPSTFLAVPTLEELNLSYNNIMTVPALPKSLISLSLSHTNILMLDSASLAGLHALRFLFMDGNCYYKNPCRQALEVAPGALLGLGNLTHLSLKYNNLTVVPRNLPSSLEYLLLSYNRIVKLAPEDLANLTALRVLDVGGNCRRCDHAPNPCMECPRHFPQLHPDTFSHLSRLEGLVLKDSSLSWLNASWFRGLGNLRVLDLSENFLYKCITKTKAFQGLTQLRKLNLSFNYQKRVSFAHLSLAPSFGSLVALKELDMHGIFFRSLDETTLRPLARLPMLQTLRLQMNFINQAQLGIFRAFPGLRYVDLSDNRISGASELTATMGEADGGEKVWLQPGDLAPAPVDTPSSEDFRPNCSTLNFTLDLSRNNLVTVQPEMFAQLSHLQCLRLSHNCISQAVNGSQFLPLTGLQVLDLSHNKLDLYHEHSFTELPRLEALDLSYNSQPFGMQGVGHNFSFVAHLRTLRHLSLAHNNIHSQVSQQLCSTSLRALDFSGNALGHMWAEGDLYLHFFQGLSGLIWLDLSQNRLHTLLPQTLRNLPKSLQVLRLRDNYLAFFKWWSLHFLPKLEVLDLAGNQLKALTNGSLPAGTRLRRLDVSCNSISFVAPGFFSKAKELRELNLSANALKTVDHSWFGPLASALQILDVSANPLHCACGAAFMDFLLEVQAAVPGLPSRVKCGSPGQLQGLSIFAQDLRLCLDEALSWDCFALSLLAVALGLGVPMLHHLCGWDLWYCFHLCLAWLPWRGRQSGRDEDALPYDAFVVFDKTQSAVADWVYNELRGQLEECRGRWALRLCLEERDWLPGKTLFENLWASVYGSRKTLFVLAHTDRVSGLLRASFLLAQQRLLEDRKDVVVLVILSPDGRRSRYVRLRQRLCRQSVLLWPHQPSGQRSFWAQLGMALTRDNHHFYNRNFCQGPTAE
Assay: TLR9 inhibition reporter assay (HEK-Blue cells, secreted embryonic alkaline phosphatase reporter)
Type: cell-based
Procedure: TLR7/8/9 Inhibition Reporter Assays
HEK-Blue™-cells (Invivogen) overexpressing human TLR7, TLR8 or TLR9 receptors were used for screening inhibitors of these receptors using an inducible SLAP (secreted embryonic alkaline phosphatase) reporter gene under the control of the […] minimal promoter fused to five NF-κB and AP-1-binding sites. Briefly, cells are seeded into Greiner 384 well plates (15000 cells per well for TLR7, 20,000 for TLR8 and 25,000 for TLR9) and then treated with test compounds in DMSO to yield a final dose response concentration range of 0.05 nM-50 μM. After a 30 minute compound pre-treatment at room temperature, the cells are then stimulated with a TLR7 ligand (gardiquimod at a final concentration of 7.5 μM), TLR8 ligand (R848 at a final concentration of 15.9 μM) or TLR9 ligand (ODN2006 at a final concentration of 5 nM) to activate NF-κB and AP-1 which induce the production of SLAP. After a 22 hour incubation at 37° C., […], SLAP levels are determined with the addition of HEK-Blue™ Detection reagent (Invivogen), a cell culture medium that allows for detection of SLAP, according to manufacturer's specifications. The percent inhibition is determined as the […] in the HEK-Blue signal present in wells treated with agonist plus DMSO alone compared to wells treated with a known inhibitor.

[1] = HEK-Blue cells overexpressing human TLR9, stimulated with ODN2006 5 nM, 22 hour incubation, reporter readout
[2] = HEK-Blue cells overexpressing human TLR9, stimulated with ODN2006 5 nM, read-out: TLR 9 IC50

Row | Compound | IC50 [1] | IC50 [2] | IC50
1 | Cc1cc(C2CCN(C3CCN(CC(C)C)CC3)CC2)cc2[nH]c(-c3cccc(OC(F)F)c3)nc12 [Example 76, 2-(3-(difluoromethoxy)phenyl)-6-(1′-isobutyl-[1,4′-bipiperidin]-4-yl)-4-methyl-1H-benzo[d]imidazole] | 260 nM | 257 nM | 
2 | Cc1cc(C2CCN(C3CCN(CC(C)C)CC3)CC2)cc2[nH]c(-c3cccc4ncsc34)nc12 [Example 77, 7-(6-(1′-isobutyl-[1,4′-bipiperidin]-4-yl)-4-methyl-1H-benzo[d]imidazol-2-yl)benzo[d]thiazole] | 31 nM | 31 nM | 
3 | Cc1cc(C2CCN(C3CCN(CC(C)C)CC3)CC2)cc2[nH]c(-c3ccc(OC(F)F)cc3)nc12 [Example 78, 2-(4-(difluoromethoxy)phenyl)-6-(1′-isobutyl-[1,4′-bipiperidin]-4-yl)-4-methyl-1H-benzo[d]imidazole] | 270 nM | 267 nM | 
4 | Cc1cc(C2CCN(C3CCN(CC(C)C)CC3)CC2)cc2[nH]c(-c3nccs3)nc12 [Example 79, 2-(6-(1′-isobutyl-[1,4′-bipiperidin]-4-yl)-4-methyl-1H-benzo[d]imidazol-2-yl)thiazole] | 110 nM | 111 nM | 
5 | Cc1cc(C2CCN(C3CCN(CC(C)C)CC3)CC2)cc2[nH]c(-c3ccccc3OC(F)(F)F)nc12 [Example 80, 6-(1′-isobutyl-[1,4′-bipiperidin]-4-yl)-4-methyl-2-(2-(trifluoromethoxy)phenyl)-1H-benzo[d]imidazole tris(2,2,2-trifluoroacetate)] | 360 nM | 358 nM | 
6 | Cc1cc(C2CCN(C3CCN(CC(C)C)CC3)CC2)cc2[nH]c(-c3cnc4[nH]ccc4c3)nc12 [Example 81, 6-(1′-isobutyl-[1,4′-bipiperidin]-4-yl)-4-methyl-2-(1H-pyrrolo[2,3-b]pyridin-5-yl)-1H-benzo[d]imidazole] | 49 nM | 49 nM | 
7 | Cc1cc(C2CCN(C3CCN(CC(C)C)CC3)CC2)cc2[nH]c(-c3cccc4cccnc34)nc12 [Example 82, 8-(6-(1′-isobutyl-[1,4′-bipiperidin]-4-yl)-4-methyl-1H-benzo[d]imidazol-2-yl)quinoline] | 32 nM | 32 nM | 
8 | COc1ccc(-c2nc3c(F)cc(C4CCN(C5CCN(C(C)C)CC5)CC4)cc3[nH]2)cc1OC [Example 83, 2-(3,4-dimethoxyphenyl)-4-fluoro-6-(1′-isopropyl-[1,4′-bipiperidin]-4-yl)-1H-benzo[d]imidazole] | 210 nM |  | 
9 | Cc1c(C2CCN(C3CCN(C(C)C)CC3)CC2)ccc2nc(-c3ccc(S(C)(=O)=O)cc3)n(C)c12 [Example 119, 6-(1′-isopropyl-[1,4′-bipiperidin]-4-yl)-1,7-dimethyl-2-(4-(methylsulfonyl)phenyl)-1H-benzo[d]imidazole] | 1100 nM | 1090 nM | 
10 | Cc1cc2nc(-c3ccc(S(C)(=O)=O)cc3)n(C)c2cc1C1CCN(C2CCN(C(C)C)CC2)CC1 [Example 120, 6-(1′-isopropyl-[1,4′-bipiperidin]-4-yl)-1,5-dimethyl-2-(4-(methylsulfonyl)phenyl)-1H-benzo[d]imidazole] | 180 nM | 178 nM | 
11 | COc1ccc(-c2nc3c(F)cc(C4CCN(C5CCN(CC(C)C)CC5)CC4)cc3[nH]2)cc1OC [Example 127, 2-(3,4-dimethoxyphenyl)-4-fluoro-6-(1′-isobutyl-[1,4′-bipiperidin]-4-yl)-1H-benzo[d]imidazole] |  | 31 nM | 31 nM

The remaining lines, values ahead:

Row | IC50 [1] | IC50 [2] | IC50 | Compound
12 |  | 268 nM | 270 nM | COc1ccc(-c2nc3c(F)cc(C4CCN(C5CCN(C6CC6)CC5)CC4)cc3[nH]2)cc1OC [Example 128, 6-(1′-cyclopropyl-[1,4′-bipiperidin]-4-yl)-2-(3,4-dimethoxyphenyl)-4-fluoro-1H-benzo[d]imidazole]
13 |  | 185 nM | 190 nM | COc1ccc(-c2nc3cc(F)c(C4CCN(C5CCN(C(C)C)CC5)CC4)cc3[nH]2)cc1OC [Example 129, 2-(3,4-dimethoxyphenyl)-5-fluoro-6-(1′-isopropyl-[1,4′-bipiperidin]-4-yl)-1H-benzo[d]imidazole]
14 |  | 22 nM | 22 nM | COc1ccc(-c2nc3cc(F)c(C4CCN(C5CCN(CC(C)C)CC5)CC4)cc3[nH]2)cc1OC [Example 130, 2-(3,4-dimethoxyphenyl)-5-fluoro-6-(1′-isobutyl-[1,4′-bipiperidin]-4-yl)-1H-benzo[d]imidazole]
15 |  | 59 nM | 59 nM | COc1ccc(-c2nc3cc(F)c(C4CCN(C5CCN(C6CC6)CC5)CC4)cc3[nH]2)cc1OC [Example 131, 6-(1′-cyclopropyl-[1,4′-bipiperidin]-4-yl)-2-(3,4-dimethoxyphenyl)-5-fluoro-1H-benzo[d]imidazole]
16 |  | 202 nM | 200 nM | COc1ccc(-c2nc3ccc(C4CCN(C5CCN(C(C)C)CC5)CC4)c(F)c3[nH]2)cc1OC [Example 132, 2-(3,4-dimethoxyphenyl)-7-fluoro-6-(1′-isopropyl-[1,4′-bipiperidin]-4-yl)-1H-benzo[d]imidazole]
17 |  | 2200 nM | 2200 nM | COc1ccc(-c2nc3ccc(C4CCN(C5CCN(CC(C)C)CC5)CC4)c(F)c3[nH]2)cc1OC [Example 133, 2-(3,4-dimethoxyphenyl)-7-fluoro-6-(1′-isobutyl-[1,4′-bipiperidin]-4-yl)-1H-benzo[d]imidazole]
18 |  | 20 nM | 21 nM | Cc1cc(C2CCN(C3CCCN(C(C)C)CC3)CC2)cc2c1nc(-c1ccc(S(C)(=O)=O)cc1)n2C (stereo not drawn) [Example 134, 6-(1-(1-isopropylazepan-4-yl)piperidin-4-yl)-1,4-dimethyl-2-(4-(methylsulfonyl)phenyl)-1H-benzo[d]imidazole]
19 |  | 23 nM | 23 nM | Cc1cc(C2CCN(C3CCCN(C4CCC4)CC3)CC2)cc2c1nc(-c1ccc(S(C)(=O)=O)cc1)n2C (stereo not drawn) [Example 135, 6-(1-(1-cyclobutylazepan-4-yl)piperidin-4-yl)-1,4-dimethyl-2-(4-(methylsulfonyl)phenyl)-1H-benzo[d]imidazole]
20 |  | 136 nM | 140 nM | Cc1cc(C2CCN(C3CCCN(CC(C)C)CC3)CC2)cc2c1nc(-c1ccc(S(C)(=O)=O)cc1)n2C (stereo not drawn) [Example 136, 6-(1-(1-isobutylazepan-4-yl)piperidin-4-yl)-1,4-dimethyl-2-(4-(methylsulfonyl)phenyl)-1H-benzo[d]imidazole]
21 |  | 19 nM | 19 nM | Cc1cc(C2CCN(C3CCCN(CC4CC4)CC3)CC2)cc2c1nc(-c1ccc(S(C)(=O)=O)cc1)n2C (stereo not drawn) [Example 137, 6-(1-(1-(cyclopropylmethyl)azepan-4-yl)piperidin-4-yl)-1,4-dimethyl-2-(4-(methylsulfonyl)phenyl)-1H-benzo[d]imidazole]
22 |  | 62 nM | 62 nM | Cc1cc(C2CCN(C3CCCN(CC4CCC4)CC3)CC2)cc2c1nc(-c1ccc(S(C)(=O)=O)cc1)n2C (stereo not drawn) [Example 138, 6-(1-(1-(cyclobutylmethyl)azepan-4-yl)piperidin-4-yl)-1,4-dimethyl-2-(4-(methylsulfonyl)phenyl)-1H-benzo[d]imidazole]
23 |  | 211 nM | 210 nM | Cc1cc(C2CCN(C3CC4(C3)CN(C(C)C)C4)CC2)cc2c1nc(-c1ccc(S(C)(=O)=O)cc1)n2C [Example 139, 6-(1-(2-isopropyl-2-azaspiro[3.3]heptan-6-yl)piperidin-4-yl)-1,4-dimethyl-2-(4-(methylsulfonyl)phenyl)-1H-benzo[d]imidazole]
